The values that follow come from patent publication EP3539969A1, “NOVEL PHOTO-INITIATORS AND THEIR APPLICATION” (ETH Zurich, priority 2018, dated 2019).

Counter-ions that a name gives are not always drawn. Like-named read-outs stand apart in the source and are kept apart here.

The conditions of series [1]: for ε405: λ = 405 nm. How it is done: To compare photobleaching, 0.25 mM solutions of ^PhBAPO-ONBu4 and ^MesBAPO-ONBu4 were prepared in THF. UV-Vis spectra were recorded in 2 mm quartz cuvettes prior and after 15 min of irradiation with 265 nm (Lumos 43 LED reactor, Atlas Photonics). Spectra have been smoothed (adjacent averaging, points of window: 5).
The conditions of series [2]: for irradiation time to complete photolysis: 405 nm LED, 80 mM in CD3CN, diphenyl disulfide (3 eq.). The text has this:
The photolysis has been followed by ^31P NMR. […] The results are further illustrated by Fig. 2

For series [3] the following is noted: 25°C. As for the experimental part:
To determine the solubility, small samples of the respective substance were exactly weighed to Eppendorf tubes. Upon shanking at an Eppendorf thermomixer (25 C @ 1400 rpm), water is added until the whole samples was homogenously dissolved.

The conditions of series [4]: for integral rel. to TPP / integral rel. to t = 0: protected from light. How it is done: To determine the stability of ^PhBAPO-ONBu4 against hydrolysis, 10 mg were dissolved in 0.6 mL of D2O in a NMR tube protected from light. […] Table 1: Integrals of 31P NMR signals of PhBAPO-ONBu4 relative to TPP as external standard for integration over time.

With `Cc1cc(C)c(C(=O)P(=O)(O)C(=O)c2c(C)cc(C)cc2C)c(C)c1` [^MesBAPO-ONBu4, bis(mesitoyl)phosphinic acid tetrabutylammonium salt, reference compound], the “λmax (longest wave absorption)” value in series [1] (THF) amounted to 373 nm. For the same molecule, the ε was 5935±72 Lmol^-1cm^-1 in series [1] (λ = 244 nm), 3368±88 Lmol^-1cm^-1 in series [1] (λ = 265 nm (LED wavelength)), 211±3 Lmol^-1cm^-1 in series [1] (λ = 359 nm) and 216±4 Lmol^-1cm^-1 in series [1] (λ = 365 nm (LED wavelength)). The same molecule registered a ε405 in series [1] of 64 Lmol^-1cm^-1. For the same molecule, in series [2], the “irradiation time to complete photolysis” value was “over 12 min”. In series [3], this molecule gave a solubility in water of 3.5 mg/mL.

Usually half-life stands for how long it takes for the measured level to halve. A high value points to slow loss. As for `O=C(c1ccccc1)P(=O)(O)C(=O)c1ccccc1` [^PhBAPO-ONBu4, bis(benzoyl)phosphinic acid tetrabutylammonium salt], the half-life in series [4] was 51.4 days. In addition, the half time in series [4] (hydrolysis in D2O) worked out at 51 days. In series [4] (hydrolysis in D2O, over 84 days), the “t1 (exponential fitting of the decay, y = e^-x/t1)” value was 74.2 ± 1.8 days. In addition, the “integral rel. to TPP” value in series [4] (t = 0 d, 10 mg in 0.6 mL D2O) turned out to be 4.24; in series [4] (t = 4 d, D2O) it was 4.02; in series [4] (t = 5 d, D2O) it was 4.02; in series [4] (t = 14 d, D2O), 3.46; in series [4] (t = 29 d, D2O), 2.98; in series [4] (t = 56 d, D2O), 1.98. For the same molecule, the “integral rel. to TPP” value in series [4] (t = 84 d, D2O) came out at 1.31. The “integral rel. to t = 0” value in series [4] (t = 0 d, D2O) is reported as 1; in series [4] (t = 4 d, D2O), 0.9481; in series [4] (t = 5 d, D2O), 0.9481; in series [4] (t = 14 d, D2O), 0.816; in series [4] (t = 29 d, D2O), 0.7028; in series [4] (t = 56 d, D2O), 0.467. In addition, the “integral rel. to t = 0” value in series [4] (t = 84 d, D2O) is 0.309. The photobleaching entry in series [1] (0.25 mM in THF, 15 min irradiation with 265 nm) is given as “only colourless photoproducts are formed”. Further, the “red shift of λmax compared to ^MesBAPO-ONBu4” value in series [1] (THF) is given as “about 20 nm”. For the same molecule, the “λmax (longest wave absorption)” value in series [1] (THF) came out at 394 nm. Moreover, the ε was determined as 16957±1372 Lmol^-1cm^-1 in series [1] (λ = 235 nm), 3424±88 Lmol^-1cm^-1 in series [1] (λ = 265 nm (LED wavelength)), 106±2 Lmol^-1cm^-1 in series [1] (λ = 365 nm (LED wavelength)) and 171±4 Lmol^-1cm^-1 in series [1] (λ = 394 nm). The ε405 in series [1] is on record as 154 Lmol^-1cm^-1. Besides, the “irradiation time to complete photolysis” value in series [2] was no more than 6 min. Besides, the “photoactivity relative to ^MesBAPO-ONBu4” value in series [2] (405 nm irradiation) was “at least twice as photoactive as ^MesBAPO-ONBu4”. In addition, the solubility in water in series [3] stood at 17.2 mg/mL.
